Experiments:
[1] = biological target: T1, FGFR1 (Homo sapiens, UniProt P11362); test: Kinase binding assay (kinase-tagged T7 phage, affinity beads, qPCR readout), FGFR1; details: FGFR binding data
T1 construct: made in house; host or cells: E. coli derived from BL21, infected with T7 phage
In short: (§1)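 Dissociation constants were measured by bead-capture competition at 0.9% DMSO, room temperature, 1 hour. qPCR of eluted kinase supplied the signal.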

[2] = biological target: T2, FGFR2 (Homo sapiens, UniProt P21802); test: Kinase binding assay (kinase-tagged T7 phage, affinity beads, qPCR readout), FGFR2; details: FGFR binding data
T2 construct: made in house; host or cells: E. coli derived from BL21, infected with T7 phage
In short: as §1

[3] = biological target: T3, FGFR3 (Homo sapiens, UniProt P22607); test: Kinase binding assay (kinase-tagged T7 phage, affinity beads, qPCR readout), FGFR3; details: FGFR binding data
T3 construct: made in house; host or cells: E. coli derived from BL21, infected with T7 phage
In short: as §1

[4] = biological target: T4, FGFR3 (V555M) (Homo sapiens, UniProt P22607, V555M); test: Kinase binding assay (kinase-tagged T7 phage, affinity beads, qPCR readout), FGFR3 (V555M); details: FGFR binding data
T4 construct: made in house; host or cells: E. coli derived from BL21, infected with T7 phage
In short: as §1

[5] = tested on: SNU-16 (Gastric Carcinoma), FGFR2 amplification; test: Cancer cell viability assay (Cell Titer-Glo), SNU-16; type: cell-based; details: Homo sapiens, SNU-16 cells, 72 hours, read-out: SNU16 FGFR2 (IC50 nM)
Text: RT112/84, UM-UC-14, SNU-16 and KG-1 Cancer Cell Line Cell Viability Assays
To detect the change of intracellular ATP by Cell Titer-Glo@ and to evaluate the inhibitory effect of the compounds on cancer cell lines by determining the in vitro IC50 value of the compounds.
Cell Titer-Glo@ 2.0 Luminescent cell viability assay reagent was purchased from Promega (Madison, WI). RT112/84, SNU-16, and KG-1 cell lines were purchased from American Type Culture Collection (Manassas, VA). UM-UC-14 cell line was purchased from Sigma (St. Louis, MO). RT112/84, UM-UC-14, SNU-16, and KG-1 cells were cultured in RPMI1640 media supplemented with 10% fetal bovine serum. Cultures were maintained at 37° C. in a humidified atmosphere of 5% CO2 and 95% air.
Cell Viability Assay Procedure: Cells were plated in 96-well clear bottom/white plates (Corning #3903) at 10,000 cells/well in 100 μl of media, incubated overnight. The next day, test compound DMSO stock solutions were made at 10 mM and 2 μM final concentration. Compounds were then added to cells in a 9-dose, […] dilution series starting at 30 μM with an HP 300e Digital Dispenser (each dose was applied in triplicate). DMSO was backfilled to each well up to 301 nL total volume of test compound+DMSO, and a total of 301 nL DMSO was added to a control/no test compound well in triplicate. The cells in cell culture plates were incubated with the compounds at 37° C. and 5% CO2 for 72 hours. Then 50 μl of Cell Titer Glo 2.0 reagent was added to each well of the cell culture plates. The contents were covered from light and mixed on an orbital shaker at room temperature for 10 min. Luminescence was recorded by a Synergy H1 Microplate Reader (Biotek, Winooski, VT). Cells were assessed as a percentage of DMSO only treated control cells. Curves were plotted and IC50 values were calculated using the GraphPad Prism 8 program based on a sigmoidal dose-response equation (4 parameter).

T2 sequence (P21802 22-821): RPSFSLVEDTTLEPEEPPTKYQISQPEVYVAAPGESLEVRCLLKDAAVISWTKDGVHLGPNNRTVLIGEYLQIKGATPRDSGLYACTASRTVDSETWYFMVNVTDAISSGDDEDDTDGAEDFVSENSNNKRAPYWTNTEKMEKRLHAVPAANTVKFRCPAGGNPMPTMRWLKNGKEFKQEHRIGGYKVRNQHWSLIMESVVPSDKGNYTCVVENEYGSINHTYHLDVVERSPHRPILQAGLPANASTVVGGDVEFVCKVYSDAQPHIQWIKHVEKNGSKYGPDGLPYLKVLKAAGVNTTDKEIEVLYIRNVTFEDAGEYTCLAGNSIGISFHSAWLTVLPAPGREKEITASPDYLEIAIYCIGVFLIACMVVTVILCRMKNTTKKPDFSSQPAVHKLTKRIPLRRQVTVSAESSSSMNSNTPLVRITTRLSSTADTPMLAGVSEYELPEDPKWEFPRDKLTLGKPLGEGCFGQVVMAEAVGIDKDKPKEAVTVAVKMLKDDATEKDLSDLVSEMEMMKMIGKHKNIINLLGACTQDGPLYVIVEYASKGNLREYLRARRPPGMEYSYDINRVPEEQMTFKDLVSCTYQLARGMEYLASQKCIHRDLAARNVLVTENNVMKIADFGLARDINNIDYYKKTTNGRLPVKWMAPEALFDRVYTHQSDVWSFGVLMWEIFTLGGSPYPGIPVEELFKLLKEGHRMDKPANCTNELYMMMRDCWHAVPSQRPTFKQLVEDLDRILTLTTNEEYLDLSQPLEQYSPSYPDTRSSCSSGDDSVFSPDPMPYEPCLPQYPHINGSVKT
T3 sequence (P22607 23-806): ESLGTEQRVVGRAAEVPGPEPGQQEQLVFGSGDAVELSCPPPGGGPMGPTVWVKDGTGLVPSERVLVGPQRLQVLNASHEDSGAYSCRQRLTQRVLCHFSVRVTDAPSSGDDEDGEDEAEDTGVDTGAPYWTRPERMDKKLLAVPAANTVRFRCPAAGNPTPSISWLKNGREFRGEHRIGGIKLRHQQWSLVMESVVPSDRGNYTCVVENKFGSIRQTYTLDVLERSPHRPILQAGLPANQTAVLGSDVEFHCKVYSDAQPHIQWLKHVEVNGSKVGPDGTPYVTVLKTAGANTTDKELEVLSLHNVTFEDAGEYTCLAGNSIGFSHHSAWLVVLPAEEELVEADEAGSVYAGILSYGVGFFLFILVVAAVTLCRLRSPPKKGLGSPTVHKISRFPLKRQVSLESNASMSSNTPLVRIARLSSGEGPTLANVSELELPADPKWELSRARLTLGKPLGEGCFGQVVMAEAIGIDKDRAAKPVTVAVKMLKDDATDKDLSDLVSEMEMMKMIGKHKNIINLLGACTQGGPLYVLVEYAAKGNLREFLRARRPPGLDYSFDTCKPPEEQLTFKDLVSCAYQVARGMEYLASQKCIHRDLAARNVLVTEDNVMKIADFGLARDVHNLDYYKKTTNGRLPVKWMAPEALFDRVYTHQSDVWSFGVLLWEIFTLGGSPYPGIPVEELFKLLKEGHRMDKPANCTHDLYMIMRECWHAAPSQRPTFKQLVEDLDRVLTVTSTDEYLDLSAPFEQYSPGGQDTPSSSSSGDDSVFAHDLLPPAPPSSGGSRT
T1 sequence (P11362 22-822): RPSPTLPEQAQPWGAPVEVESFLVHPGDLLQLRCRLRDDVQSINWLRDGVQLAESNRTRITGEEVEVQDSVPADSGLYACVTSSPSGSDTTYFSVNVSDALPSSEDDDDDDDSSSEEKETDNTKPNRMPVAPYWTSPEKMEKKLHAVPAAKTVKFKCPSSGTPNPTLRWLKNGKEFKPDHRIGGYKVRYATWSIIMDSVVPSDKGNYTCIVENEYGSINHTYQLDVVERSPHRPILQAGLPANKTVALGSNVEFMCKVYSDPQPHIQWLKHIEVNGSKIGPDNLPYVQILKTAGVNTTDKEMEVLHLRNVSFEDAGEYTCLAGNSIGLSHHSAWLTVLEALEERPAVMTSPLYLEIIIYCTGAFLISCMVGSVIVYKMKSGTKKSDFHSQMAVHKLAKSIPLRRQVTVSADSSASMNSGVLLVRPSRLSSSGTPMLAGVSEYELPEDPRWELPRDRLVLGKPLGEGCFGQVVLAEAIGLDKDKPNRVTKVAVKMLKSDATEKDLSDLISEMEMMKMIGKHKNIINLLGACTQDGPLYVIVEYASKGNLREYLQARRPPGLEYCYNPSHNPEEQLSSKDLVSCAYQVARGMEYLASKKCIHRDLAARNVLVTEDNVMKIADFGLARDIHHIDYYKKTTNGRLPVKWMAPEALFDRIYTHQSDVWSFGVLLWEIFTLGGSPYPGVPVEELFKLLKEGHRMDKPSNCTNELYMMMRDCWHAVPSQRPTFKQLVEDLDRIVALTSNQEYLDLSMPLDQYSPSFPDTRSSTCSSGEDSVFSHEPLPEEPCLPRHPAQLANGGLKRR
T4 sequence (P22607 23-806 V555M): as the sequence (P22607 23-806) above, with V533M counted along it

Kd [1]	Kd [2]	Kd [3]	Kd [4]	IC50 [5]	Structure (SMILES)
0.1 to 100 nM	0.1 to 100 nM	0.1 to 100 nM	0.1 to 100 nM	0.1 to 100 nM	C=CC(=O)Nc1cnc2c(c1)c(C)cn2-c1nc(Nc2ccn(C)n2)ncc1C [Example 97, N-[3-methyl-1-[5-methyl-2-[(1-methylpyrazol-3-yl)amino]pyrimidin-4-yl]pyrrolo[2,3-b]pyridin-5-yl]prop-2-enamide]
0.1 to 100 nM	0.1 to 100 nM	0.1 to 100 nM	0.1 to 100 nM	0.1 to 100 nM	C=CC(=O)Nc1ccc2c(c1)c(C)cn2-c1nc(Nc2cn(CC(C)(C)O)nc2C)ncc1F [Example 182, N-[1-[5-fluoro-2-[[1-(2-hydroxy-2-methyl-propyl)-3-methyl-pyrazol-4-yl]amino]pyrimidin-4-yl]-3-methyl-indol-5-yl]prop-2-enamide]
0.1 to 100 nM	0.1 to 100 nM	0.1 to 100 nM	0.1 to 100 nM	0.1 to 100 nM	C=CC(=O)Nc1ccc2c(c1)c(C)cn2-c1nc(Nc2cnn(CC(C)(C)O)c2C)ncc1F [Example 183, N-[1-[5-fluoro-2-[[1-(2-hydroxy-2-methyl-propyl)-5-methyl-pyrazol-4-yl]amino]pyrimidin-4-yl]-3-methyl-indol-5-yl]prop-2-enamide]
0.1 to 100 nM	0.1 to 100 nM	0.1 to 100 nM	0.1 to 100 nM	0.1 to 100 nM	C=CC(=O)Nc1ccc2c(c1)c(C)cn2-c1nc(Nc2cc(C)n(C)n2)ncc1C [Example 102, N-[1-[2-[(1,5-dimethylpyrazol-3-yl)amino]-5-methyl-pyrimidin-4-yl]-3-methyl-indol-5-yl]prop-2-enamide]
0.1 to 100 nM	0.1 to 100 nM	0.1 to 100 nM	0.1 to 100 nM	0.1 to 100 nM	C=CC(=O)Nc1ccc2c(c1)c(C)cn2-c1nc(Nc2cnn(C3CCOC3)c2)ncc1F (centres unmarked) [Example 215, N-[1-[5-fluoro-2-[(1-tetrahydrofuran-3-ylpyrazol-4-yl)amino]pyrimidin-4-yl]-3-methyl-indol-5-yl]prop-2-enamide]
0.1 to 100 nM	0.1 to 100 nM	0.1 to 100 nM	0.1 to 100 nM	0.1 to 100 nM	C=CC(=O)Nc1ccc2c(c1)c(C)cn2-c1nc(Nc2cn(CCO)nc2C)ncc1F [Example 176, N-[1-[5-fluoro-2-[[1-(2-hydroxyethyl)-3-methyl-pyrazol-4-yl]amino]pyrimidin-4-yl]-3-methyl-indol-5-yl]prop-2-enamide]
0.1 to 100 nM	0.1 to 100 nM	0.1 to 100 nM	0.1 to 100 nM	0.1 to 100 nM	C=CC(=O)Nc1cnc2c(c1)c(C)cn2-c1nc(Nc2cnn(CCO)c2)ncc1C [Example 125, N-[1-[2-[[1-(2-hydroxyethyl)pyrazol-4-yl]amino]-5-methyl-pyrimidin-4-yl]-3-methyl-pyrrolo[2,3-b]pyridin-5-yl]prop-2-enamide]
0.1 to 100 nM	0.1 to 100 nM	0.1 to 100 nM	0.1 to 100 nM	0.1 to 100 nM	C=CC(=O)Nc1ccc2c(c1)c(C)cn2-c1nc(Nc2cn(CC(F)(F)F)nc2C)ncc1F [Example 165, N-[1-[5-fluoro-2-[[3-methyl-1-(2,2,2-trifluoroethyl)pyrazol-4-yl]amino]pyrimidin-4-yl]-3-methyl-indol-5-yl]prop-2-enamide]
0.1 to 100 nM	0.1 to 100 nM	0.1 to 100 nM	0.1 to 100 nM	0.1 to 100 nM	C=CC(=O)Nc1ccc2c(c1)c(C)cn2-c1nc(Nc2cc(C)[nH]n2)ncc1C [Example 123, N-[3-methyl-1-[5-methyl-2-[(5-methyl-1H-pyrazol-3-yl)amino]pyrimidin-4-yl]indol-5-yl]prop-2-enamide]
0.1 to 100 nM	0.1 to 100 nM	0.1 to 100 nM	0.1 to 100 nM	–	C=CC(=O)Nc1ccc2c(c1)c(C)cn2-c1nc(Nc2ccc(CN3CCN(C)CC3)c(F)c2)ncc1Cl [Example 86, N-[1-[5-chloro-2-[3-fluoro-4-[(4-methylpiperazin-1-yl)methyl]-anilino]pyrimidin-4-yl]-3-methyl-indol-5-yl]prop-2-enamide]

More lines, now with the values behind:

Structure (SMILES)	Kd [1]	Kd [2]	Kd [3]	Kd [4]	IC50 [5]
C=CC(=O)Nc1ccc2c(-c3nc(Nc4cnn(CCO)c4)ncc3Cl)cn(C)c2c1 [Example 127, N-[3-[5-chloro-2-[[1-(2-hydroxyethyl)pyrazol-4-yl]amino]pyrimidin-4-yl]-1-methyl-indol-6-yl]prop-2-enamide]	0.1 to 100 nM	0.1 to 100 nM	0.1 to 100 nM	0.1 to 100 nM	0.1 to 100 nM
Cc1nn(C)cc1Nc1ncc(Cl)c(-n2cc(C)c3cc(NC(=O)/C=C/CN(C)C)cnc32)n1 [Example 180, (E)-N-[1-[5-chloro-2-[(1,3-dimethylpyrazol-4-yl)amino]pyrimidin-4-yl]-3-methyl-pyrrolo[2,3-b]pyridin-5-yl]-4-(dimethylamino)but-2-enamide]	100 to 250 nM	0.1 to 100 nM	0.1 to 100 nM	0.1 to 100 nM	0.1 to 100 nM
C=CC(=O)Nc1ccc2c(-c3nc(Nc4cnn(CCO)c4)ncc3F)cn(C)c2c1 [Example 128, N-[3-[5-fluoro-2-[[1-(2-hydroxyethyl)pyrazol-4-yl]amino]pyrimidin-4-yl]-1-methyl-indol-6-yl]prop-2-enamide]	0.1 to 100 nM	0.1 to 100 nM	0.1 to 100 nM	0.1 to 100 nM	0.1 to 100 nM
C=CC(=O)Nc1ccc2c(-c3ccnc(Nc4cnn(C5CC5)c4)n3)cn(C)c2c1 [Example 178, N-[3-[2-[(1-cyclopropylpyrazol-4-yl)amino]pyrimidin-4-yl]-1-methyl-indol-6-yl]prop-2-enamide]	0.1 to 100 nM	0.1 to 100 nM	0.1 to 100 nM	0.1 to 100 nM	0.1 to 100 nM
C=CC(=O)Nc1ccc2c(-c3ccnc(Nc4ccn(CC)n4)n3)cn(C)c2c1 [Example 94, N-[3-[2-[(1-ethylpyrazol-3-yl)amino]pyrimidin-4-yl]-1-methyl-indol-6-yl]prop-2-enamide]	100 to 250 nM	250 to 1000 nM	0.1 to 100 nM	100 to 250 nM	–
C=CC(=O)Nc1ccc2c(ccn2-c2nc(Nc3ccc(OCCN4CCOCC4)cc3)ncc2Cl)c1C [Example 21, N-[1-[5-chloro-2-[4-(2-morpholinoethoxy)anilino]pyrimidin-4-yl]-4-methyl-indol-5-yl]prop-2-enamide]	250 to 1000 nM	0.1 to 100 nM	100 to 250 nM	0.1 to 100 nM	–
C=CC(=O)Nc1ccc2c(ccn2-c2nc(Nc3ccc(N4CCOCC4)c(F)c3)ncc2Cl)c1C [Example 17, N-[1-[5-chloro-2-(3-fluoro-4-morpholino-anilino)pyrimidin-4-yl]-4-methyl-indol-5-yl]prop-2-enamide]	250 to 1000 nM	250 to 1000 nM	100 to 250 nM	0.1 to 100 nM	–
CC#CC(=O)Nc1cnc2c(c1)c(C)cn2-c1nc(Nc2ccnn2C)ncc1C [Example 131, N-[3-methyl-1-[5-methyl-2-[(2-methylpyrazol-3-yl)amino]pyrimidin-4-yl]pyrrolo[2,3-b]pyridin-5-yl]but-2-ynamide]	> 1000 nM	> 1000 nM	> 1000 nM	> 1000 nM	–
C#CC(=O)Nc1cnc2c(c1)c(C)cn2-c1nc(Nc2cnn(CCO)c2)ncc1F [Example 133, N-[1-[5-fluoro-2-[[1-(2-hydroxyethyl)pyrazol-4-yl]amino]pyrimidin-4-yl]-3-methyl-pyrrolo[2,3-b]pyridin-5-yl]prop-2-ynamide]	0.1 to 100 nM	0.1 to 100 nM	0.1 to 100 nM	0.1 to 100 nM	–

Reference: patent US20240190849A1, “AMINOPYRIMIDINE COMPOUNDS AND METHODS OF THEIR USE” (TYRA BIOSCIENCES, INC., priority 2021, published 2024)
